One molecule from article PMC8142146 (Bioorganic chemistry, 2020) can be followed below.

Common to all, as to assay: PARP-isoform screening, Chemiluminescent Activity Assay Kit
Holding throughout (assay type): biochemical
Conditions in all cases: Figure 5

One experiment deals with T1, TNKS1 (PARP5A) (Homo sapiens, UniProt O95271).
T1 sequence (O95271 1-1327): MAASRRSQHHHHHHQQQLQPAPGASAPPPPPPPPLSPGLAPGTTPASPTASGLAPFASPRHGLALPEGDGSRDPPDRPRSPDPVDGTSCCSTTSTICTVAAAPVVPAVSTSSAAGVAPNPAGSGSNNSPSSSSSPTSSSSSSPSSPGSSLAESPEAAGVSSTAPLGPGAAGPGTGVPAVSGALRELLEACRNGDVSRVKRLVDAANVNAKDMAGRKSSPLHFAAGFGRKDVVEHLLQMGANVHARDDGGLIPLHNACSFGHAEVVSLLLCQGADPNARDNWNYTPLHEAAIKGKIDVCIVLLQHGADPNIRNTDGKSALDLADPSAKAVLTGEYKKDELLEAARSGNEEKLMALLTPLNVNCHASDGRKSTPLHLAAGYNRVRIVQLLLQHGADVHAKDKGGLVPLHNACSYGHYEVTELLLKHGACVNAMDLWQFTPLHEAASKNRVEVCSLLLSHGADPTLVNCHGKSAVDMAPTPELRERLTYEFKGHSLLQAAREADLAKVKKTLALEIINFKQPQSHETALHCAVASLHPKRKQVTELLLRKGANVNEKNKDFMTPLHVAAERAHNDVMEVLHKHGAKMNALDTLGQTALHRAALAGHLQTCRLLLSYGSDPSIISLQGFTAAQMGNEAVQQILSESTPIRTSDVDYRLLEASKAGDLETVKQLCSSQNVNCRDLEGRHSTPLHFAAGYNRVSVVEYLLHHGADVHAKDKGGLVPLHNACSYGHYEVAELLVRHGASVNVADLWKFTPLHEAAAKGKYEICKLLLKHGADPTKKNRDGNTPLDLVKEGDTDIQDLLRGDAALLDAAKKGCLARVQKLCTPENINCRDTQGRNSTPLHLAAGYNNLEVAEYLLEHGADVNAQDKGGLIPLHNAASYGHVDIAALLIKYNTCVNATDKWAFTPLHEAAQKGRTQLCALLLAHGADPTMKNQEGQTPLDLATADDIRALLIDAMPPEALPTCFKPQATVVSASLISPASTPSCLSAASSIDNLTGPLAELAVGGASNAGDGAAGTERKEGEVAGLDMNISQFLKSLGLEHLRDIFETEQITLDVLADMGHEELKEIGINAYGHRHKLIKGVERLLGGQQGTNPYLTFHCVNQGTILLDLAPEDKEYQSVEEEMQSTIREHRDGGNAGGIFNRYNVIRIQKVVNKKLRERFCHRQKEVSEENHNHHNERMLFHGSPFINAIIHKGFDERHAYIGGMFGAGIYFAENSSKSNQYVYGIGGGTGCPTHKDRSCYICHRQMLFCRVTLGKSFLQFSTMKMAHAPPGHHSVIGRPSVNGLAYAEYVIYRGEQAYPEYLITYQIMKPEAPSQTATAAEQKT

A further experiment has as its target T2, PARP3 (Homo sapiens, UniProt Q9Y6F1).
T2 sequence (Q9Y6F1 1-533): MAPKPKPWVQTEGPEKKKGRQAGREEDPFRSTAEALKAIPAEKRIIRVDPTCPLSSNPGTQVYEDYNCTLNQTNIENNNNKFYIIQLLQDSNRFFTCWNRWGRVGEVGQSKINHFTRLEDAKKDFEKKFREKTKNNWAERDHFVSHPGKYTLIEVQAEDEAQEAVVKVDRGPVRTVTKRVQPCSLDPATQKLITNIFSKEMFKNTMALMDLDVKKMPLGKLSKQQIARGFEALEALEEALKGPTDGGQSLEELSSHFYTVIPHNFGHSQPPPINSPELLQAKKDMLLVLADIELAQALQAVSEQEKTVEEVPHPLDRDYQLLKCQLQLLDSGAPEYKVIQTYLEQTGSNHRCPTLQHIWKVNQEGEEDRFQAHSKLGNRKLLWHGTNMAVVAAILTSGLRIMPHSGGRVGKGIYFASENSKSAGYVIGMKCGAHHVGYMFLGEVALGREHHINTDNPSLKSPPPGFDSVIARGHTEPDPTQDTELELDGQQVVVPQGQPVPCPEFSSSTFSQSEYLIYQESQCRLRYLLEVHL

Another experiment has as its target T3, PARP10 (Homo sapiens, UniProt Q53GL7).
T3 sequence (Q53GL7 1-1025): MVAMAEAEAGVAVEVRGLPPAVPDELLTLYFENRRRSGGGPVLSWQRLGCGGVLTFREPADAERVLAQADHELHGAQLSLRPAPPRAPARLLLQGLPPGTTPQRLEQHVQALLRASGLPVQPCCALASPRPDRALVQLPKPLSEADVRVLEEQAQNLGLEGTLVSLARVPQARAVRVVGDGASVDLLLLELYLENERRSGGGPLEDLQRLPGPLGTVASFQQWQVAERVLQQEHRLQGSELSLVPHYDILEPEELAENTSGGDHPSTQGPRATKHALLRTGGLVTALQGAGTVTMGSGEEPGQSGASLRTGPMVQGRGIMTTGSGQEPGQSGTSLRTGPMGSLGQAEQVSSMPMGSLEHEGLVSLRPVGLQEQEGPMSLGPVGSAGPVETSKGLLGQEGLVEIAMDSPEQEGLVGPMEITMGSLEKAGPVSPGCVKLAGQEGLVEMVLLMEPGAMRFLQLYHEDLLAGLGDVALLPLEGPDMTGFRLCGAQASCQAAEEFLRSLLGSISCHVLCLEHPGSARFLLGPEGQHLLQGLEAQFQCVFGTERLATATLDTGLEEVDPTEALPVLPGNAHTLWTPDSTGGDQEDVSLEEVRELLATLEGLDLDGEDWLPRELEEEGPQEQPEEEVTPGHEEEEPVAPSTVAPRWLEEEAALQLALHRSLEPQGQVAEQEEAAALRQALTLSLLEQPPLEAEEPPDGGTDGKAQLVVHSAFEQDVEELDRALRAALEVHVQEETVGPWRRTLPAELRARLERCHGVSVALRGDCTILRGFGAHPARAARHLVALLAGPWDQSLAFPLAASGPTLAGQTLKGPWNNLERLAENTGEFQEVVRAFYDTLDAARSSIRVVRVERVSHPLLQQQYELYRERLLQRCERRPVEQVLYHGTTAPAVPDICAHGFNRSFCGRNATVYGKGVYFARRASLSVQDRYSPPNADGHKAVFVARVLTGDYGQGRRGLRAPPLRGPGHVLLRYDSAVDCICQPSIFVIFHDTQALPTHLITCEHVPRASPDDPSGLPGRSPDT

In the case of `NC(=O)c1cccc2c1O/C(=C\c1ccc(O)cc1)C(=O)N2` [Compound 49, (Z)-2-(4-Hydroxybenzylidene)-3-oxo-3,4-dihydro-2H-benzo[b][1,4]oxazine-8-carboxamide], at TNKS1 (PARP5A), the TNKS1 inhibition result is recorded as “substantially inhibited”. Moreover, the PARP3 inhibition entry on PARP3 is “substantially inhibited”. Besides, the PARP10 inhibition entry on PARP10 is on record as “did not interfere”.
